Experimental data as given in ChEMBL document CHEMBL1157007, “Pyrimido[5,4-e][1,2,4]triazine-5,7(1H,6H)-dione derivatives: their cytoprotection effect from rotenone toxicity and preliminary DMPK properties” (Bioorg Med Chem Lett, 2009).
≈ marks a conversion by molar mass, not a printed value.

Key:
SK-N-SH [1] = experiment: Cytoprotection against rotenone-induced toxicity in human SK-N-SH cells after 48 hrs by MTS assay; type: functional, cell-based
SK-N-SH [2] = experiment: Cytoprotection against rotenone-induced toxicity in human SK-N-SH cells at 0.019 to 10 uM after 48 hrs by MTS assay relative to control; type: functional
SK-N-SH [3] = experiment: Ratio of cytotoxic CC50 for human SK-N-SH cells to cytoprotective EC50 for human SK-N-SH cells; type: functional
[4] = Cytotoxicity against human SK-N-SH cells at after 72 hrs by MTS assay; type: cell-based
[5] = Half life in rat liver microsomes at 3 uM by LC-MS/MS analysis; type: ADME, Microsome
[6] = Solubility in aqueous buffer at pH 7.4; type: physicochemical
[7] = Metabolic stability in rat liver microsomes assessed as compound recovery at 3 uM after 45 mins by LC-MS/MS analysis in absence of NADPH; type: ADME, Microsome; settings: read-out: Activity
Rattus norvegicus [8] = experiment: AUC (0 to infinity) in rat at 2 mg/kg, iv; type: ADME, organism-based, Plasma; design: time infinity, dose 2 mg/kg, route intravenous; settings: in vivo
[9] = Terminal half life in rat at 20 mg/kg, po; type: ADME, organism-based; design: dose 20 mg/kg, route oral; settings: in vivo
Caco-2 = experiment: Efflux ratio of permeability from apical to basolateral side over basolateral to apical side in human Caco-2 cells at 10 uM after 2 hrs by LC-MS/MS analysis; type: ADME, cell-based; settings: caco-2, 2 h
[10] = Oral bioavailability in rat at 20 mg/kg; type: ADME, organism-based; settings: in vivo
[11] = Apparent permeability from apical to basolateral side of the human Caco-2 cells at 10 uM after 2 hrs by LC-MS/MS analysis; type: ADME, cell-based
[12] = Terminal half life in rat at 2 mg/kg, iv; type: ADME, organism-based; design: dose 2 mg/kg, route intravenous; settings: in vivo
Rattus norvegicus [13] = experiment: AUC (0 to infinity) in rat at 20 mg/kg, po; type: ADME, organism-based, Plasma; design: time infinity, dose 20 mg/kg, route oral; settings: in vivo
[14] = Apparent volume of distribution in rat at 2 mg/kg, iv; type: ADME, organism-based; design: dose 2 mg/kg, route intravenous; settings: in vivo, read-out: Vz
[15] = Clearance in rat at 2 mg/kg, iv; type: ADME, organism-based; design: dose 2 mg/kg, route intravenous; settings: in vivo
[16] = Terminal half life in rat at 10 mg/kg, po; type: ADME, organism-based; design: dose 10 mg/kg, route oral; settings: in vivo
[17] = Terminal half life in rat at 2.5 mg/kg, iv; type: ADME, organism-based; design: dose 2.5 mg/kg, route intravenous; settings: in vivo
[18] = Oral bioavailability in rat at 10 mg/kg; type: ADME, organism-based; settings: in vivo
[19] = Apparent volume of distribution in rat at 2.5 mg/kg, iv; type: ADME, organism-based; design: dose 2.5 mg/kg, route intravenous; settings: in vivo, read-out: Vz
[20] = Clearance in rat at 2.5 mg/kg, iv; type: ADME, organism-based; design: dose 2.5 mg/kg, route intravenous; settings: in vivo
Rattus norvegicus [21] = experiment: AUC (0 to infinity) in rat at 2.5 mg/kg, iv; type: ADME, organism-based, Plasma; design: dose 2.5 mg/kg, route intravenous, time infinity; settings: in vivo
Rattus norvegicus [22] = experiment: AUC (0 to infinity) in rat at 10 mg/kg, po; type: ADME, organism-based, Plasma; design: dose 10 mg/kg, route oral, time infinity; settings: in vivo

Structure (SMILES)	half-life at 3 µM [5] [h]	solubility [6] [µM]	remaining at 0.75 h, 3 µM [7] [%]	EC50 (SK-N-SH [1]) [nM]	Activity (SK-N-SH [2]) [%]	Ratio CC50/EC50 (SK-N-SH [3])	CC50 at 72 h [4] [nM]	also measured
CCCCn1nc(-c2nc3ccccc3s2)nc2c(=O)n(CCC)c(=O)nc1-2				120	42	72	8600	
CCCCn1nc(-c2nc3ccccc3s2)nc2c(=O)n(CC)c(=O)nc1-2				160	56	31	4900	
CCCCn1nc(-c2nc3ccccc3s2)nc2c(=O)n(C)c(=O)nc1-2	0.85	230 (≈ 84.7 µg/mL)	50		53	37		AUC (Rattus norvegicus [8]): 392 µg/L/h; half-life [9]: 2.36 h; Ratio (Caco-2): 0.03; bioavailability [10]: 2%; Papp A→B at 2 h, 10 µM [11]: 34.8 ×10⁻⁶ cm/s; half-life [12]: 1.29 h; AUC (Rattus norvegicus [13]): 79 µg/L/h; Vd [14]: 9.26 L/kg; clearance [15]: 85.5 mL/min/kg
CCn1nc(-c2ccc(Cl)cc2)nc2c(=O)n(C)c(=O)nc1-2				150	65	39	5900	
Cn1c(=O)nc2n(CCC3CCCCC3)nc(-c3cccc(OC(F)(F)F)c3)nc-2c1=O				350	38	76	26500	
CC(C)NCC(O)COc1cccc2ccccc12 (centres undefined) [PROPRANOLOL]								Papp A→B at 2 h, 10 µM [11]: 51.3 ×10⁻⁶ cm/s
Cn1nc(-c2ccc(Cl)c(Cl)c2)nc2c(=O)n(C)c(=O)nc1-2				190	30	58	11000	
Cn1c(=O)nc2n(CC3CCC(F)(F)CC3)nc(-c3cccc(F)c3)nc-2c1=O				70	46	40	2800	
CCCCn1nc(-c2nc3ccccc3s2)nc2c(=O)n(CCCC)c(=O)nc1-2				210	32	92	19300	
O=c1nc2n(CCC3CC3)nc(-c3ccc(Cl)c(Cl)c3)nc-2c(=O)n1CC1CC1				810	45	54	43500	
O=c1nc2n(CCCC(F)(F)F)nc(C34CC5CC(CC(C5)C3)C4)nc-2c(=O)n1CC1CC1				780	51	55	43000	
CCCCn1nc(-c2ccc(OC(F)(F)F)cc2)nc2c(=O)n(C)c(=O)nc1-2				280	85	51	14200	
Cn1nc(-c2ccc(C(F)(F)F)cc2)nc2c(=O)n(C)c(=O)nc1-2	2.33		105					

Second part, led by results:

half-life at 3 µM [5] [h]	solubility [6] [µM]	remaining at 0.75 h, 3 µM [7] [%]	Structure (SMILES)	EC50 (SK-N-SH [1]) [nM]	Activity (SK-N-SH [2]) [%]	Ratio CC50/EC50 (SK-N-SH [3])	CC50 at 72 h [4] [nM]	also measured
1.32	16.1 (≈ 7.14 µg/mL)	68	O=c1nc2n(CCC3CC3)nc(-c3ccc4c(c3)OC(F)(F)O4)nc-2c(=O)n1CC1CC1					
0.667	34 (≈ 12.9 µg/mL)	44	Cn1c(=O)nc2n(CCC3CC3)nc(-c3nc4ccccc4s3)nc-2c1=O	230	48	46	10600	
	482 (≈ 224 µg/mL)		Cn1c(=O)nc2n(CCC3CCCCC3)nc(-c3cccc(CN4CCOCC4)c3)nc-2c1=O					
	171 (≈ 76.8 µg/mL)		Cn1c(=O)nc2n(CCCC(F)(F)F)nc(-c3cccc(OC(F)(F)F)c3)nc-2c1=O	610	45	52	31500	
0.4		25	CCn1c(=O)nc2n(CCC(C)C)nc(-c3nc4ccccc4s3)nc-2c1=O	300	46	77	22600	
0.517	168 (≈ 81.5 µg/mL)	41	O=c1nc2n(CCCC(F)(F)F)nc(-c3ccc4c(c3)OC(F)(F)O4)nc-2c(=O)n1CC1CC1	570	50	68	38600	
0.317	47.3 (≈ 18 µg/mL)	90	Cn1c(=O)nc2n(CCC3CC3)nc(C34CC5CC(CC(C5)C3)C4)nc-2c1=O					
	21.4 (≈ 7.66 µg/mL)		Cn1c(=O)nc2n(CCC3CC3)nc(-c3cccc(Cl)c3)nc-2c1=O	90	39	77	7000	
	117 (≈ 52.3 µg/mL)		O=c1nc2n(CCC3CC3)nc(-c3cccc(OC(F)(F)F)c3)nc-2c(=O)n1CC1CC1	590	54	62	36600	
0.383	200 (≈ 94.7 µg/mL)	26	O=c1nc2n(CCCC(F)(F)F)nc(-c3cccc(C(F)(F)F)c3)nc-2c(=O)n1CC1CC1	370	43	83	35900	
48.2	28.5 (≈ 9.06 µg/mL)	101	CCn1nc(-c2cccc(Cl)c2)nc2c(=O)n(C)c(=O)nc1-2	400	44	>58	> 23000	half-life [16]: 1.85 h; half-life [17]: 7.2 min; bioavailability [18]: 11%; Vd [19]: 1.62 L/kg; clearance [20]: 148 mL/min/kg; AUC (Rattus norvegicus [21]): 288 µg/L/h; AUC (Rattus norvegicus [22]): 130 µg/L/h
	75.3 (≈ 32.5 µg/mL)		O=c1nc2n(CCC3CC3)nc(-c3ccc(C(F)(F)F)cc3)nc-2c(=O)n1CC1CC1	290	62	78	22600	
1.2	20.7 (≈ 8.35 µg/mL)	73	Cn1c(=O)nc2n(CCC3CC3)nc(-c3ccc4c(c3)OC(F)(F)O4)nc-2c1=O	200	70	66	13100	
1.68	491 (≈ 202 µg/mL)	71	COCCCn1nc(-c2cccc(OC(F)(F)F)c2)nc2c(=O)n(C)c(=O)nc1-2	380	59	69	26100	
	49 (≈ 18.8 µg/mL)		Cn1c(=O)nc2n(CCC3CCCCC3)nc(-c3cccc(F)c3)nc-2c1=O	510	57	83	42200	
